What all share (type): biochemical
Assay [1] can be described thus: ABTS radical cation scavenging (decolorization) assay. The conditions noted are these: mean ± SEM, n = 3. As for the experimental part: The ABTS assay is based on the direct quenching of the ABTS cation radical (ABTS^•+) by antioxidants. The assay is carried out by spectrophotometric determination of a decrease in absorbance of a stable dark green ABTS^•+ solution after its interaction with an antioxidant compound [56]. The measurements were performed as previously described in detail. The results are expressed as TEAC values (Trolox equivalent antioxidant capacity) and IC50 values (compound concentration required for 50% reduction of the ABTS radical).
Radical scavenging activity of the compounds was assessed using the ABTS radical cation (ABTS^•+) decolorization assay with some modifications. ABTS (2,2′-azinobis-(3-ethylbenzothiazoline-6-sulfonic acid)) was purchased from Tokyo Chemical Industry Co., Ltd. (Tokyo, Japan), and potassium persulfate (dipotassium peroxodisulfate), Trolox (6-hydroxy-2,5,7,8-tetramethylchroman-2-carboxylic acid), and HPLC-grade ethanol and DMSO were obtained from Sigma-Aldrich (Saint Louis, MO, USA). Aqueous solutions were prepared using deionized water. All test compounds were dissolved in DMSO.
The solution of cation radical ABTS^•+ was produced by incubation of an aqueous solution of 7 mM ABTS and 2.45 mM potassium persulfate solution in equal quantities for 12–16 h at room temperature in the dark. Radical scavenging capacity of the compounds was analyzed by mixing 10 μL of compound with 240 μL of ABTS^•+ working solution in ethanol (100 μM final concentration). Data were given for 1 h of incubation of compounds with ABTS^•+. The reduction in absorbance was measured spectrophotometrically at 734 nm using an xMark microplate UV/VIS microplate spectrophotometer (Bio-Rad, Hercules, CA, USA).
Ethanol blanks were run in each assay. Values were obtained from three replicates of each sample and three independent experiments.
Standard antioxidant Trolox was used as a reference compound. Antioxidant capacity as Trolox equivalent (TEAC) values was determined as the ratio between the slopes obtained from the linear correlation of the ABTS radical absorbance with the concentrations of tested compounds and Trolox. Quercetin was used as a positive control. For the test compounds that reduced ABTS^•+ absorbance by more than 60% at 100 µM, we also determined the IC50 values (the compound concentration required for a 50% reduction of the ABTS radical). The compounds were tested in the concentration range of 0.5–400 µM.

A short description of assay [2]: ORAC-FL (oxygen radical absorbance capacity) assay. Particulars: mean ± SEM, n = 3; 2 h; 10 μM compound and Trolox. The source says: In the oxygen radical absorbance capacity (ORAC-FL) assay, 2,2′-azobis-(2-methylpropionamidine) dihydrochloride (AAPH) is used as a free peroxyl radical generator, and fluorescein (FL) is used as a fluorescent probe. The method is based on measuring the decrease in the intensity of fluorescence with time, which characterizes the degree of decay of the fluorescent probe under the influence of peroxyl radicals. In the presence of antioxidants, the degree of decay of the fluorescent probe decreases and, accordingly, the fluorescence intensity increases. The results are expressed as TE (Trolox equivalents).
The ORAC assay utilizes a biologically relevant radical source, 2,2′-azobis(2-amidinopropane) dihydrochloride (AAPH)-derived peroxyl radicals. Thus, it is a more physiologically relevant assay than ABTS and FRAP.
The oxygen radical absorbance capacity (ORAC) was determined by the ability of compounds to protect fluorescein (FL) from peroxyl radicals that are generated by AAPH according to the known method with minor variations. The reaction was carried out at 37 °C in black 96-well plates (SPL life sciences), and the final volume of the reaction mixture was 200 µL per well. The fluorescence was recorded by Tecan M1000 PRO microplate reader (Switzerland) at 485 nm excitation and 520 nm emission.
The 0.7 mM fluorescein sodium salt stock solution in PBS pH 7.4 (137 mM sodium chloride, 2.7 mM potassium chloride, and 10 mM phosphate buffer) was prepared and stored at 4–5 °C no longer than one month. An aliquot of the fluorescein stock solution was further diluted with PBS immediately before each assay to yield a 70 nM working solution. The 133 mM AAPH solution in PBS was prepared immediately before use. The test compounds and Trolox standard were dissolved in DMSO to 400 μM. The final concentration was 10 μM for all of the samples.
The blank was composed of 15 μL PBS pH 7.4, 5 μL DMSO (final concentration: 2.5% (v/v)), 120 μL FL, and 60 μL AAPH, and it was included in each assay. PBS pH 7.4 (15 μL), antioxidant (the test compound or Trolox, 5 μL), and FL (120 μL, final concentration: 42 nM) solutions were placed in a black 96-well microplate and were pre-incubated for 15 min at 37 °C. AAPH solution (60 μL, final concentration 40 mM) was then added rapidly using a multichannel pipette. The fluorescence was recorded every minute for 2 h. A Trolox standard curve was also obtained in each assay. All reactions were carried out in quadruplicate, and two to four independent assays were performed for each sample.
Antioxidant curves (fluorescence vs. time) were first normalized to the curve of the blank (without antioxidant) corresponding to the same assay, and the net AUC corresponding to a sample was calculated by subtracting the AUC corresponding to the blank. The ORAC value was obtained by dividing the latter curve by the Trolox curve obtained in the same assay at 10 μM concentrations of compounds and Trolox. Final ORAC values, Trolox equivalents (TE), were expressed as μmol test compounds per μmol Trolox, where the value of TE for Trolox was taken as 1. Data were expressed as means ± SEM.

Assay [3] in a line: ORAC-FL (oxygen radical absorbance capacity) assay. Particulars: mean ± SEM, n = 3; 2 h; read-out: ORAC-FL IC50 (compound concentration required for 50% reduction of peroxyl radical) (converted).
The nature of assay [4]: FRAP (ferric reducing antioxidant power) assay. Particulars: mean ± SEM, n = 3; 1 h, 37 °C, pH 3.6. As for the experimental part: The FRAP (ferric reducing antioxidant power) assay measures the ability of antioxidants to reduce the ferric 2,4,6-tripyridyl-s-triazine complex [Fe(TPTZ)2]^3+ to the intensely blue ferrous complex [Fe(TPTZ)2]^2+ in an acidic medium. The measurements were performed as previously described in detail. The results are expressed as TE (Trolox equivalents).
The FRAP (ferric reducing antioxidant power) assay measures the ability of antioxidants to reduce the ferric 2,4,6-tripyridyl-s-triazine complex [Fe (TPTZ)2]^3+ to the intensely blue ferrous complex [Fe (TPTZ)2]^2+ (λ = 593 nm) in acidic medium. 2,4,6-Tris(pyridin-2-yl)-1,3,5-triazine (TPTZ), FeCl3·6H2O, Trolox, quercetin and DMSO were obtained from Sigma-Aldrich Chemical Co. (St. Louis, MO, USA). The FRAP reagent contained 2.5 mL of 10 mM TPTZ solution in 40 mM HCl, 2.5 mL of 20 mM FeCl3·6H2O water solution, and 25 mL of 0.3 M acetate buffer (pH 3.6). Aliquots of 10 µL of the test compound solution in DMSO (0.5 mM) were mixed with 240 µL of FRAP reagent, and the absorbance of the mixture was measured spectrophotometrically (FLUOStar OPTIMA microplate spectrophotometer (BMG Labtech, Ortenberg, Germany)) at 600 nm after 1 h incubation at 37 °C against a blank. Trolox was used as a reference compound. Quercetin was used as a positive control. A calibration curve with linear formula y = 0.03x (R^2 = 0.998, p < 0.0001) was prepared for Trolox solutions in DMSO at a range of 2.5–100 µM, and the results are expressed as Trolox equivalents (TE), the values calculated as the ratio of the concentrations of Trolox and the test compound, resulting in the same effect.

As to `Cc1c(C)c2c(c(C)c1O)CCC(C)(C(=O)O)O2` (centres unmarked) [Trolox, 6-hydroxy-2,5,7,8-tetramethylchroman-2-carboxylic acid, reference compound], the IC50 in assay [1] (1 h, read-out: ABTS IC50 (compound concentration required for 50% reduction of the ABTS radical-cation) (converted)) was 20.1 µM; in assay [3], 23.6 µM. Also, the “ABTS TEAC (Trolox equivalent antioxidant capacity)” value in assay [1] (1 h incubation, relative to Trolox) was determined as 1.0 TEAC. Besides, the “ORAC-FL TE (Trolox equivalent)” value in assay [2] is given as 1.0 TE. Moreover, the “FRAP TE (Trolox equivalent)” value in assay [4] was 1.0 TE.

These data come from article PMC9699072 (Molecules, 2022).
